# Measurements: patent US6825178B1, “Methods and products for treating pseudomonas infection” (The Brigham and Women's Hospital, Inc., priority 1996, dated 2004)
# Marks after values point to notes of the source that are not given here.
# Tested on: transformed human airway epithelial cells (CFT1-LCFSN line)
# Assay: Inhibition of internalization of P. aeruginosa strain PAO1 into CFT1-LCFSN cells (bacterial ingestion assay)
# Type: cell-based
# Settings: for mean cfu P. aeruginosa internalized (standard deviation): strain PAO1, CFT1-LCFSN cells
# Excerpt: Cell lines. CFT1-LCFSN cells, carrying a retrovirally introduced chromosomal copy of the wild-type human CFTR gene were kindly provided by J. Olsen, J. Yankaskis and L. Johnson from The University of North Carolina, Chapel Hill, N.C.. The cell line parental to CFT1-LCFSN is designated CFT1; it is a line of human papilloma virus 18 E6/E7 transformed bronchial epithelial cells derived from a CF patient homozygous for ΔF508 CFTR. The CFT1-LCFSN cells have normal chloride ion conductance. CFT1-ΔF508 cells are derived from CFT1 cells and carry a cDNA introduced by a retrovirus vector that encodes the ΔF508 mutant form of CFTR. Cells were grown in supplemented F-12 medium as described in 5% CO2 at 37° C.
# Bacterial strains. P. aeruginosa strains used include PAO1, a well-characterized laboratory strain, and strains 149 and 324, non-mucoid, LPS-smooth clinical isolates of P. aeruginosa from CF patients early in the course of infection. Fresh cultures of P. aeruginosa grown overnight at 37° C. on a tryptic soy agar plate were suspended in supplemented medium to prepare the bacterial inoculum. Approximately 10^6 cfu of the bacterial inoculum were added per well of 10^5, epithelial cells.
# Reagents for inhibition of ingestion assays. Membranes were prepared from C127 cells as described by O'Riordan et al.. Membranes were suspended in 150 mM NaCl, 50 mM Tris, pH 7.5 and 1 mM EDTA and added at the indicated concentration to suspensions of P. aeruginosa strains prior to adding this mixture to CFT1-LCFSN cells to measure bacterial uptake. Membranes from CEM/VbI cells expressing P-glycoprotein and membranes from control CEM cells lacking P-glycoprotein were obtained from James Croop of Harvard Medical School. Purified (˜85%) recombinant CFTR was obtained from Genzyme Corp., and prepared as described. The protein was solubilized in 100 mM NaCl, 10 mM Tris, pH 8.0, 2 mM di-thio-threitol and 0.1% sodium dodecyl sulfate. Monoclonal antibodies raised to synthetic peptides corresponding to the first (MAb CF3) and fourth (MAb CF4) predicted extracellular domains of CFTR, as well as a MAb specific to a peptide representing the carboxy-terminal 14 amino acids of mature CFTR (MAb CF2) were provided by Dr. George Banting, University of Bristol, Bristol, UK [12]. Synthetic peptides were obtained from Chiron Mimetopes, San Diego, Calif. Peptide […] (15 amino acids) (SEQ.ID.NO. 3) represents amino acids 103-117 of mature CFTR, peptide […] (31 amino acids) (SEQ.ID.NO. 4) represents amino acids 881-911 of mature CFTR. Peptides were made up as a stock solution in F-12 medium containing 1 μM/μl based on the purity reported by the manufacturer. Peptides were diluted in F-12 tissue culture medium prior to use in assays.
# Bacterial ingestion assay. Cells were released from monolayers in tissue culture flasks by 5 min. of incubation with trypsin-versene mixture (BioWhitaker, Walkersville, Md.), washed, counted and seeded into 96-well tissue culture plates at 10^5 cells/well in supplemented F-12 medium and incubated at 37° C. in 5% CO2. Fresh cultures of P. aeruginosa grown overnight at 37° C. on a tryptic soy agar plate were suspended in supplemented F-12 medium to prepare the bacterial inoculum. Then 10^6 colony forming units (cfu) of the bacterial inoculum were added per well of 10^5 epithelial cells. Bacteria were allowed to invade the epithelial cells for 3 to 4 hours at 37° C., after which nonadherent bacteria were removed by washing. The remaining steps of the assay and the steps involved in the controls have previously been described. Three to 9 replicates were obtained per point, and analyzed using analysis of variance (ANOVA) and the Fisher PLSD statistic to determine pairwise differences. […]
substance,measurement,setting,value
CFTR: purified (~85%) recombinant CFTR obtained from Genzyme Corp.,inhibition of bacterial ingestion (in words),"CFT1-LCFSN cells, nanogram quantities of CFTR",significant inhibition of bacterial ingestion
same,mean cfu P. aeruginosa internalized (standard deviation),9.7 μg protein/ml,1.05 × 10^5 (2.5 × 10^4) cfu
same,mean cfu P. aeruginosa internalized (standard deviation),78 μg protein/ml,8.55 × 10^4 (1.15 × 10^4) cfu
same,mean cfu P. aeruginosa internalized (standard deviation),625 μg protein/ml,4.9 × 10^4 (1.25 × 10^4)^a cfu
same,mean cfu P. aeruginosa internalized (standard deviation),5000 μg protein/ml,1.65 × 10^4 (1.05 × 10^4)^a cfu
